Reference: PubChem BioAssay AID179 (DTP/NCI, 2004)
“And” between values parts separate entries of the source, which are not always exact repeats. Equal entries are not always repeated. The source made the active and inactive calls.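 How the source made its calls: active means compounds giving half or more protection of infected cells from virus-caused growth loss, again on retest; inactive means the rest.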 Where a SMILES comes first, the peptide text is derived from it. The star is where a group is joined. Boc = CC(C)(C)OC(=O)*; OBn = c1ccc(CO*)cc1

Test system: CEM cells HIV-1 protection, formazan growth assay
Experiment: NCI AIDS Antiviral Assay
Conditions: for IC50: measured here: growth of uninfected CEM cells
Method in brief: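 Protection of CEM cells against HIV-1 measured as cell growth via soluble formazan read-out, with five concentrations tested on both infected and uninfected cells; failure to protect may reflect toxicity.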

With `CCOC(=O)CNC(SC)=C(C#N)C#N` the outcome was “inactive”.
With `Cc1nc2ccc(F)cc2c2c1CCN2c1ccc(Cl)cc1` the EC50 was > 100 µM and the IC50 was 5.75 µM.
`C/C(=N/NC(=S)N1CCCCC1)c1ccccc1O` was tested, and the EC50 was > 200 µM and the IC50 was 91.2 µM.
In the case of `COC(=O)C1(Cc2ccc(C)cc2)Cc2c(C)cccc2C1=O` (configuration not stated), the EC50 is reported as > 200 µM and the IC50 is reported as 8.91 µM.
For `Cc1ccccc1NC(=O)C(=O)c1c(O)c2ccc(O)cc2oc1=O`, the EC50 was > 741 µM and the IC50 was 331 µM.
For `c1ccc([P+](CCCCCC[P+](c2ccccc2)(c2ccccc2)c2ccccc2)(c2ccccc2)c2ccccc2)cc1`, the EC50 was > 200 µM and the IC50 was 5.37 µM and 7.24 µM.
For `O=c1[nH]c(O)c(/C=N/C(=S)N=Nc2c(O)[nH]c3ccccc23)c(=O)[nH]1`, the EC50 was > 200 µM and the IC50 was > 200 µM.
`O=[N+]([O-])C(Cl)C(Cl)c1ccc(Cl)cc1` (configuration not stated) was tested, and the EC50 was > 200 µM and the IC50 was 7.41 µM.
With `CC(NC(=O)C(Cc1ccccc1)NC(=O)C(Cc1ccccc1)NC(=O)OC(C)(C)C)C(=O)OCc1ccccc1` (stereo not drawn) (Boc-Phe-Phe-Ala-OBn; configuration not given here) the EC50 was > 200 µM and the IC50 was 60.3 µM.
For `Cc1ccc(NC(=O)/C(Cl)=C(/Cl)C(=O)O)cc1`, the outcome was “inactive”.
In the case of `CN1C(=O)CC(Sc2ccccc2)c2cc(Cl)ccc21` (configuration not stated), the EC50 is reported as > 200 µM and the IC50 is reported as 15.8 µM.
With `CN1CCN=C(c2ccccc2)c2cc(Cl)ccc21` the EC50 was > 200 µM and the IC50 was 105 µM.
`CCOc1ccccc1NC(=O)/C=C1\NC(=O)CS1` was tested, and the EC50 was > 158 µM and the IC50 was 129 µM.
`C[N+]1(C)CC2C3C=C(I)C(C3)C2C1` (configuration not stated) was tested, and the EC50 was > 214 µM and the IC50 was > 214 µM.
With `COc1ccc(CCc2ncc[nH]2)cc1OC` the EC50 was > 617 µM and the IC50 was > 617 µM.
`COc1ccc(/C=N/Nc2nc(C)c(C)s2)cc1` was tested, and the EC50 was > 100 µM and the IC50 was > 100 µM.
In the case of `C/C(=N\Nc1ccccc1)C(CN(C)C)C(c1ccccc1)c1c(O)c2ccccc2oc1=O` (configuration not stated), the EC50 is reported as > 27.5 µM and the IC50 is reported as > 27.5 µM.
In the case of `CCN1N=CSC12C(=O)N(c1ccccc1)C(=O)N2c1ccccc1` (configuration not stated), the outcome is reported as “inactive”.
`O=c1[nH]c(=O)c2c3n(cc2[nH]1)CCCCC3` was tested, and the EC50 was > 200 µM and the IC50 was > 200 µM.
In the case of `O=C(/C=C\c1ccc(Cl)cc1Cl)c1cccs1`, the EC50 is reported as > 200 µM and the IC50 is reported as 32.4 µM.
In the case of `COc1c(C)c(C/C=C(\C)CCCCO)c(OC)c(OC)c1OC`, the EC50 is reported as > 200 µM and the IC50 is reported as 26.3 µM.
For `CC(C)N(C=C(C#N)C#N)C(C)C`, the EC50 was > 200 µM and the IC50 was > 200 µM.
With `O=c1ccn(C2OC(CN(O)CCC3C(CO)OC(n4ccc(=O)[nH]c4=O)C3O)C(O)C2O)c(=O)[nH]1` (configuration not stated) the EC50 was > 200 µM and the IC50 was 126 µM.
With `CCOC(=O)/C(C#N)=C(N)/C(=N\Nc1cccc(C(F)(F)F)c1)C(=O)OCC` the outcome was “inactive”.
In the case of `CCOC(=O)/C(C(=O)c1ccc[nH]1)=C1/CCCN1C`, the EC50 is reported as > 200 µM and the IC50 is reported as 129 µM.
`Oc1ccc2c(c1)OCC1c3ccccc3OC21` (configuration not stated) was tested, and the outcome was “inactive”.
For `CCOC(=O)C(C)Sc1nnc(COc2ccc(Cl)cc2)n1-c1ccccc1` (configuration not stated), the EC50 was > 100 µM and the IC50 was 47.9 µM.
`COc1cc(OC)c2c(c1)OC(c1ccccc1)CC2=O` (configuration not stated) was tested, and the EC50 was > 200 µM and the IC50 was > 200 µM.
In the case of `CSc1cnn(CCC#N)c(=O)n1`, the EC50 is reported as > 200 µM and the IC50 is reported as 36.3 µM.
For `CCC1(c2ccc(OC)c(OC)c2)CCN2C(=O)C(O)CC21` (configuration not stated), the EC50 was > 200 µM and the IC50 was > 200 µM.
`CC(C)N=c1sc(-c2ccccc2)c(C#N)c(=O)n1C(C)C` was tested, and the EC50 was > 75.9 µM and the IC50 was 55 µM.
For `c1cc[c]([Sn]([S]c2cccc3cccnc23)([c]2ccccc2)[c]2ccccc2)cc1`, the outcome was “inactive”.
With `NC(=O)C(=O)C(c1ccccc1)S(=O)(=O)Cc1ccccc1` (configuration not stated) the EC50 was > 200 µM and the IC50 was > 200 µM.
For `COC(=O)C1CC(C=[N+](C)C)=C(SC)N1` (configuration not stated), the EC50 was > 200 µM and the IC50 was > 200 µM.
For `COc1ccc(-c2c3c(n(C4OC(COC(C)=O)C(OC(C)=O)C(OC(C)=O)C4OC(C)=O)c(=S)c2C#N)CC(C)(C)CC3=O)cc1` (configuration not stated), the EC50 was > 200 µM and the IC50 was 26.3 µM and 53.7 µM.
`O=C(Nc1ccccc1)N(C1=NCC(CI)S1)c1ccc(F)cc1F` (configuration not stated) was tested, and the EC50 was > 200 µM and the IC50 was 25.1 µM.
In the case of `CCNC(C)(C)C(SSSC(c1ccc(Cl)cc1)C(C)(C)NCC)c1ccc(Cl)cc1` (configuration not stated), the EC50 is reported as > 200 µM and the IC50 is reported as 9.12 µM.
In the case of `CN(CC(=O)O)S(=O)(=O)c1ccc(Cl)cc1`, the outcome is reported as “inactive”.
For `CC12NN=NC1C(=O)NC2=O` (configuration not stated), the EC50 was > 200 µM and the IC50 was > 200 µM.
For `CC1(C)OC2OC(C3COS(=O)O3)C(Cl)C2O1` (configuration not stated), the EC50 was > 871 µM and the IC50 was 490 µM.
With `NC(=O)c1ccccc1NC(=O)C(=O)Cc1nc2ccccc2[nH]c1=O` the EC50 was > 269 µM and the IC50 was > 269 µM.
`CC1(C)C(=O)/C=C\C(=O)C(C)(C)C2=CC=C(O2)C(C)(C)C(=O)C(Br)C(Br)C(=O)C(C)(C)C2=CC=C1O2` (configuration not stated) was tested, and the outcome was “inactive”.
In the case of `C1CCC2(CC1)CCN(CCCN1CCOCC1)CC2`, the outcome is reported as “inactive”.
With `COc1cc2c(cc1Oc1c(Oc3c(O)c(OC)cc4c3C(CC(C)C)N(C)CC4)c(OC)cc3c1C(CC(C)C)N(C)CC3)C(CC(C)C)N(C)CC2` (configuration not stated) the outcome was “inactive”.
With `CC(NC(=O)OC(C)(C)C)C(=O)NC(Cc1ccccc1)C(=O)NCC(=O)O` (stereo not drawn) (Boc-Ala-Phe-Gly-OH; configuration not given here) the EC50 was > 200 µM and the IC50 was > 200 µM.
With `COC(=O)[C@@]1(C)CCC[C@]2(C(=O)O)C3Cc4occc4[C@H](C)[C@@H]3CCC21` (some centres not stated) the EC50 was > 200 µM and the IC50 was 105 µM.
